Data from patent publication US9580432B2, “Fused pyrimidine compound or salt thereof” (TAIHO PHARMACEUTICAL CO., LTD., priority 2013, dated 2017).

How the values were obtained:
[1] = Influence on body weight of SD rat by repeated administration (in vivo); conditions: two weeks; for Relative body weight ratio (%): 750 mg/kg orally once a day, relative to vehicle-administered group
Experimental: The rats were grouped as follows, with four animals in each group, by a random classification method such that the average body weights of the each groups would be almost uniform (Day 1).
The body weight change (BWC) was used as an index indicating the systemic toxicity caused by drug administration. The BWC was calculated by the following formula. BWC (%)=([(Rat body weight on 14 days after the administration)−(rat body weight at the time of grouping)]/(rat body weight at the time of grouping))×100
The relative body weight change ratios in the each compound-administered groups were calculated by the following formula when the BWC in the vehicle-administered group was set as 1, and the results are indicated in Table 52. Relative body weight change ratio (%)=(BWC in the compound-administered group)/(BWC in the vehicle-administered group)×100

[2] = target: purified recombinant human BTK protein (Homo sapiens (Human), UniProt Q06187); experiment: Measurement of BTK inhibitory activity (in vitro); type: biochemical; conditions: FL-PEPTIDE 2 substrate 1 μM, ATP 45 μM, 40 minutes at 25° C.
purified recombinant human BTK protein, sequence (Q06187 whole entry): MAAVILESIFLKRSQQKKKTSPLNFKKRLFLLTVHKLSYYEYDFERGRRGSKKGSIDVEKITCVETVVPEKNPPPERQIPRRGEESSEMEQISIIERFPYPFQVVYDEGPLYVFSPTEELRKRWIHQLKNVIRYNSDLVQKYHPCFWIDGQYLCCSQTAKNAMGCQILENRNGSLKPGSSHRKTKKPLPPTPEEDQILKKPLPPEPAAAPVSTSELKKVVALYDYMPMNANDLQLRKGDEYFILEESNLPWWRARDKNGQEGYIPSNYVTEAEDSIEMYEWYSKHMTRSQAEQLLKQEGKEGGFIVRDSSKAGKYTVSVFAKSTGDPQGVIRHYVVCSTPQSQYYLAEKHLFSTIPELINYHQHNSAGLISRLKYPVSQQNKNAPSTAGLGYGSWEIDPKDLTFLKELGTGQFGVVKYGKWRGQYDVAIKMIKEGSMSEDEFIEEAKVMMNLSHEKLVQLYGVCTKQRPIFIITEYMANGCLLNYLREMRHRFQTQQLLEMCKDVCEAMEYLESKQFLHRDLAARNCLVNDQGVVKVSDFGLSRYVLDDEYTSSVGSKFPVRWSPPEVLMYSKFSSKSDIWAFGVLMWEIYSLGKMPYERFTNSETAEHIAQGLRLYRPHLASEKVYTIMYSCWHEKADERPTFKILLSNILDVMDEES
Outline: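 Recombinant human BTK with FL-PEPTIDE 2 substrate (1 μM), 45 μM ATP and 10 mM MgCl2 in 20 mM HEPES pH 7.5, 2 mM DTT, 0.01% Triton X-100, 5% DMSO; 40 min at 25° C. Reaction stopped with 30 mM EDTA. Phosphorylated and unphosphorylated peptide separated and detected by microchannel capillary electrophoresis.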

[3] = tested on: purified recombinant human EGFR protein / BTK; experiment: BTK inhibition selectivity compared with EGFR kinase inhibitory activity (in vitro); type: biochemical; conditions: EGFR assay ATP 1.5 μM
A431 cells / TMD8 cells = experiment: Proliferation inhibitory activity against cell lines expressing BTK and EGFR (in vitro), comparison of selectivity; type: cell-based, human; conditions: ratio from GI50 (nM), 3 days culture, CELLTITER GLO
Outline: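 BTK-expressing TMD8 DLBCL cells (RPMI1640/10% FBS) and EGFR-overexpressing A431 epidermoid carcinoma cells (DMEM/10% FBS) cultured 1 day, then exposed to compound (0.2% DMSO final) for 3 days at 37° C. Luminescence read-out; inhibition ratio % = (C−T)/(C−C0)×100, with A431/TMD8 ratio as selectivity index.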

[4] = tested on: Human B cell lymphoma-derived cell line TMD8; experiment: Antitumor effect, TMD8 subcutaneously transplanted into SCID mice; type: in vivo; conditions: Day 17; 50 mg/kg orally once a day
Excerpt: (§1) Human B cell lymphoma-derived cell line TMD8 was subcutaneously transplanted into SCID mice. At the time point when the volume of engrafted tumors reached 100 to 200 mm^3, the mice were divided into groups, with 5 animals in each group, by a random classification method (Day 1) such that the tumor volumes in the various groups would be uniform, and oral administration was initiated. […] In order to compare the antitumor effect caused by the drug administration, the relative tumor volume (RTV), which was the proliferation ratio of tumor when the tumor volume at the time of grouping was set as one, was determined by the following formula. RTV=(Tumor volume on the day of tumor volume measurement)/(tumor volume at the time of grouping)

[5] = Body weight change ratio in TMD8-transplanted SCID mice; type: in vivo; conditions: Day 17; 50 mg/kg orally once a day
Excerpt: as §1
The body weight change (BWC) was used as an index indicating the systemic toxicity caused by drug administration. BWC (%)=([(mice body weight on the day of weight measurement)−(mice body weight at the time of grouping)]/(mice body weight at the time of grouping))×100 (Mathematical Formula 1)

Compound | individuals suffering from loose bowel ([1]; 280 mg/kg orally once a day) | width of rat body weight increase compared with the vehicle-administered group ([1]; 280 mg/kg orally once a day) | IC50 [2] | EGFR inhibitory activity IC50 value (nM)/BTK inhibitory activity IC50 value (nM) [3] | A431 cell proliferation inhibition ratio/TMD8 cell proliferation inhibitio ratio (A431 cells / TMD8 cells) | RTV (relative tumor volume) [4] | BWC (body weight change) [5] | Relative body weight ratio (%) [1]
C=CC(=O)N1CCC[C@@H](n2nc(-c3ccc(Oc4ccccc4)cc3)c3c(N)ncnc32)C1 [Comparative Example Compound 1, (R)-1-(3-(4-amino-3-(4-phenoxyphenyl)-1H-pyrazolo[3,4-d]pyrimidin-1-yl)piperidin-1-yl)prop-2-en-1-one, reference compound] | individuals suffering from loose bowel were recognized | very small |  |  |  |  |  | 
C=CC(=O)N1CCC[C@@H](n2nc(C(=O)Nc3nc4cc(F)ccc4o3)c3c(N)ncnc32)C1 [Example 12, (R)-1-(1-acryloylpiperidin-3-yl)-4-amino-N-(5-fluorobenzo[d]oxazol-2-yl)-1H-pyrazolo[3,4-d]pyrimidine-3-carboxamide] |  |  | 0.433 nM | 84.2 | 3077.4 | 0.13 | 6.0% | 91.2%
C=CC(=O)N1CCC[C@@H](n2nc(C(=O)Nc3nc4ccccc4o3)c3c(N)ncnc32)C1 [Example 13, (R)-1-(1-acryloylpiperidin-3-yl)-4-amino-N-(benzo[d]oxazol-2-yl)-1H-pyrazolo[3,4-d]pyrimidine-3-carboxamide] |  |  | 0.813 nM | 28.8 | 4872.2 | 4.24 | 3.8% | 79.1%
Nc1ncnc2c1c(C(=O)Nc1nc3cc(Cl)ccc3o1)cn2[C@@H]1CCN(C(=O)/C=C/CN2CCCC2)C1 [Example 53, (R,E)-4-amino-N-(5-chlorobenzo[d]oxazol-2-yl)-7-(1-(4-(pyrrolidin-1-yl)but-2-enoyl)pyrrolidin-3-yl) 7H-pyrrolo[2,3-d]pyrimidine-5-carboxamide] |  |  | 1.68 nM | 25.5 | >1535.4 |  |  | 
Nc1ncnc2c1c(C(=O)Nc1nc3cc(Cl)ccc3o1)cn2[C@@H]1CCN(C(=O)/C=C/CN2CCCCC2)C1 [Example 54, (R,E)-4-amino-N-(5-chlorobenzo[d]oxazol-2-yl)-7-(1-(4-(piperidin-1-yl)but-2-enoyl)pyrrolidin-3-yl) 7H-pyrrolo[2,3-d]pyrimidine-5-carboxamide] |  |  | 1.44 nM | 37.1 | >2675.9 |  |  | 
C=CC(=O)N1CCCC(Cn2nc(C(=O)Nc3nc4ccccc4o3)c3c(N)ncnc32)C1 (centres unmarked) [Example 67, 1-((1-acryloylpiperidin-3-yl)methyl)-4-amino-N-(benzo[d]oxazol-2-yl)-1H-pyrazolo[3,4-d]pyrimidine-3-carboxamide] |  |  | 14 nM | 18.0 | >2168.7 |  |  | 
C=CC(=O)N1CCC(Cn2nc(C(=O)Nc3nc4ccccc4o3)c3c(N)ncnc32)CC1 [Example 68, 1-((1-acryloylpiperidin-4-yl)methyl)-4-amino-N-(benzo[d]oxazol-2-yl)-1H-pyrazolo[3,4-d]pyrimidine-3-carboxamide] |  |  | 13.2 nM | 11.4 | >4785.8 |  |  | 
C=CC(=O)N1CC(Cn2nc(C(=O)Nc3nc4ccccc4o3)c3c(N)ncnc32)C1 [Example 70, 1-((1-acryloylazetidin-3-yl)methyl)-4-amino-N-(benzo[d]oxazol-2-yl)-1H-pyrazolo[3,4-d]pyrimidine-3-carboxamide] |  |  | 3.17 nM | 12.2 | >8369.4 |  |  | 
C=CC(=O)N[C@H]1CC[C@@H](n2nc(C(=O)Nc3nc4ccccc4o3)c3c(N)ncnc32)CC1 [Example 71, 1-((1S,4S)-4-acrylamidocyclohexyl)-4-amino-N-(benzo[d]oxazol-2-yl)-1H-pyrazolo[3,4-d]pyrimidine-3-carboxamide] |  |  | 5.89 nM | 42.0 | >7657.0 |  |  | 
C=CC(=O)N[C@H]1CC[C@H](n2nc(C(=O)Nc3nc4ccccc4o3)c3c(N)ncnc32)CC1 [Example 72, 1-((1R,4R)-4-acrylamidocyclohexyl)-4-amino-N-(benzo[d]oxazol-2-yl)-1H-pyrazolo[3,4-d]pyrimidine-3-carboxamide] |  |  | 28.1 nM | 12.4 | >2802.7 |  |  | 
